Where “and” joins values, the source holds several entries; their conditions need not be identical. Equal values may be shown once.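 Grown in 96-well plates, cells were treated for 48 hours with each compound at five concentrations. Insufficient inhibition: endpoint recorded as highest concentration tested. GI50: concentration for 50% inhibition of growth. TGI denotes the concentration required for complete inhibition of growth.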
The molecules below were run on KM12 colon (assay: growth of human tumour cells (NCI), 48 h).
Molecule `Cn1c(Nc2ccc(C(F)(F)F)cc2)nc2cc(Oc3ccnc(-c4ncc(C(F)(F)F)[nH]4)c3)ccc21` has a GI50 of 1300 nM and a TGI of 12.5 µM. `COc1ccc(-c2nsc3c2NC(=O)CC3c2cccc(OC)c2)cc1` (configuration not stated) gave a GI50 of 505 nM and a TGI greater than 100 µM. In the case of `C[C@@]12CCC[C@@](C)(C(=O)O)C1CC[C@]13CC(=O)[C@](CO)(C1)[C@@H](O)CC32` (some centres not stated), the GI50 is reported as greater than 100000 nM and the TGI is reported as greater than 100 µM. `O=[N+]([O-])c1ccc(CI)cc1` was tested, and the GI50 was 3520 nM and the TGI was 12 µM. `Cn1cnnc1Sc1c([N+](=O)[O-])ncn1C` gave a TGI greater than 100 µM. Work on `C=CCC1(CN(C)C)CC/C(=C\c2ccc(Cl)cc2)C1=O` (configuration not stated) yielded a TGI greater than 78.5 µM. Work on `COc1ccc(-c2cc(/C=C/C(=O)c3ccc(OC)c(OC)c3)[nH]n2)cc1` yielded a GI50 of 1380 nM and a TGI of 3.11 µM. Molecule `C[Si](C)(C)/C(I)=C/CO` has a TGI of 60.8 µM. Molecule `C[N+](C)(C)CC1CCC/C1=N\OC(=O)c1ccccc1` (configuration not stated) has a TGI greater than 100 µM. `CC(=O)N1CCC(=O)/C(=C/c2ccccc2)C1` showed a TGI of 51.6 µM. Work on `CCCCCCCN=C(N)c1ccc(N2CCN(c3ccc(C(N)=NCCCCCCC)cc3)CC2)cc1` yielded a GI50 greater than 100000 nM and a TGI greater than 100 µM. `C[Si](C)(C)/C(Br)=C\CCN1C(=O)CCC1=O` showed a TGI greater than 100 µM. Molecule `Cc1ccc(S(=O)OCc2c(C)c(C)c(COS(=O)c3ccc(C)cc3)c(C)c2C)cc1` (configuration not stated) has a TGI greater than 100 µM. `C[C@]12CCC(=O)C=C1CC[C@@H]1C2CC[C@]2(C)Nc3[nH]ncc3CC12` (some centres not stated) gave a TGI greater than 100 µM. For `COc1ccc2c(c1)c[n+](C)c1c3cc(OC)c(OC)cc3ccc21`, the GI50 was 1210 nM and 2880 nM and the TGI was 2.79 µM and 9.42 µM. Molecule `CSc1ccccc1C#C/C=C\C#Cc1ccccc1N` has a GI50 of 2920 nM and a TGI of 10.4 µM. `COc1ccc(/C(=C\C=C(C#N)C#N)Sc2nc3ccccc3s2)cc1` gave a GI50 of 10600 nM and a TGI of 31.3 µM. Work on `CC(C)(C)[Si](C)(C)OC1C(=O)C[C@H]2CCCC[C@@H]12` (some centres not stated) yielded a TGI greater than 100 µM. `CCN(CC)CCSc1c2ccccc2nc2c(OC)ccc(OC)c12` gave a TGI of 16.8 µM. `COc1cc(/C=C\c2cc(OC)c(OC)c(OC)c2)cc(N/C=C\C(=O)c2cc(OC)c(OC)c(OC)c2)c1OC` gave a GI50 of 3210 nM and a TGI greater than 100 µM. With `BrCc1cccc(C[P+](c2ccccc2)(c2ccccc2)c2ccccc2)c1` the GI50 was 16000 nM and the TGI was greater than 100 µM. Work on `Cc1ccc(NC(=O)CCc2nnc(N)o2)cc1` yielded a TGI greater than 100 µM. `Cc1cc(N(CCCNc2ccnc3cc(Cl)ccc23)Cc2ccc3c(c2)OCO3)nc(N2CCOCC2)n1` was tested, and the GI50 was 340 nM and the TGI was 25.7 µM. `CCOC(=O)C1SC(=Nc2ccccc2)N=C1C` (configuration not stated) showed a TGI greater than 100 µM. `O=C1CCC(=O)c2c1c(O)c1ccncc1c2O` showed a TGI of 38.9 µM. Molecule `CN(C)c1ccc(N=Nc2ccccn2)c(O)c1` has a GI50 of 465 nM and a TGI greater than 76.9 µM. With `C=CCN1CCC23c4c5ccc(O)c4OC2C(=NN=C2CCC4(O)C6Cc7ccc(O)c8c7C4(CCN6CC=C)C2O8)CCC3(O)C1C5` (configuration not stated) the TGI was 42.4 µM. `CN(C)CCNC(=O)c1cccc2c(Nc3ccc(S(=O)(=O)N=C(N)N)cc3)c3ccccc3nc12` was tested, and the TGI was greater than 100 µM. Molecule `COC(=O)C1=C(C(=O)OC)C2=S(SC3=C2CCCC3)S1` (configuration not stated) has a TGI of 97.6 µM. With `O=C(NNc1ccccc1)C(=O)NNc1ccccc1` the GI50 was 535 nM and the TGI was greater than 100 µM. `CC1(C)CC(=O)CC(=Nc2ccc([N+](=O)[O-])cc2)C1` gave a TGI greater than 100 µM. `Cc1nc2cc(Nc3nc(Nc4ccc(F)cc4)nc(-c4cccs4)n3)ccc2n1Cc1ccccc1` was tested, and the GI50 was 3120 nM and the TGI was 16.7 µM. With `Cn1cc(-c2csc(-c3c[nH]c4ccc(Br)cc34)n2)c2cnccc21` the GI50 was 2330 nM and the TGI was 5.48 µM. `CCOC(=O)c1c(-c2ccc(OC)cc2)c(C#N)c2c(C#N)c(N)nn2c1N` showed a GI50 of 4010 nM and a TGI greater than 100 µM.

These molecules were tested on 786-0 renal (assay: growth of human tumour cells (NCI), 48 h).
Work on `Cn1c(Nc2ccc(C(F)(F)F)cc2)nc2cc(Oc3ccnc(-c4ncc(C(F)(F)F)[nH]4)c3)ccc21` yielded a GI50 of 2220 nM and a TGI of 13.9 µM. `COc1ccc(-c2nsc3c2NC(=O)CC3c2cccc(OC)c2)cc1` (configuration not stated) was tested, and the GI50 was 12500 nM and the TGI was greater than 100 µM. `C[C@@]12CCC[C@@](C)(C(=O)O)C1CC[C@]13CC(=O)[C@](CO)(C1)[C@@H](O)CC32` (some centres not stated) was tested, and the GI50 was greater than 100000 nM and the TGI was greater than 100 µM. `O=[N+]([O-])c1ccc(CI)cc1` was tested, and the GI50 was 4710 nM and the TGI was 16.4 µM. `Cn1cnnc1Sc1c([N+](=O)[O-])ncn1C` gave a TGI greater than 100 µM. `C=CCC1(CN(C)C)CC/C(=C\c2ccc(Cl)cc2)C1=O` (configuration not stated) was tested, and the TGI was greater than 100 µM. `COc1ccc(-c2cc(/C=C/C(=O)c3ccc(OC)c(OC)c3)[nH]n2)cc1` was tested, and the GI50 was 1600 nM and the TGI was 3.09 µM. For `C[Si](C)(C)/C(I)=C/CO`, the TGI was greater than 100 µM. Molecule `C[N+](C)(C)CC1CCC/C1=N\OC(=O)c1ccccc1` (configuration not stated) has a TGI greater than 100 µM. In the case of `CC(=O)N1CCC(=O)/C(=C/c2ccccc2)C1`, the TGI is reported as 69.6 µM. Work on `CCCCCCCN=C(N)c1ccc(N2CCN(c3ccc(C(N)=NCCCCCCC)cc3)CC2)cc1` yielded a GI50 of 596 nM and a TGI greater than 100 µM. Molecule `C[Si](C)(C)/C(Br)=C\CCN1C(=O)CCC1=O` has a TGI greater than 100 µM. With `Cc1ccc(S(=O)OCc2c(C)c(C)c(COS(=O)c3ccc(C)cc3)c(C)c2C)cc1` (configuration not stated) the TGI was greater than 100 µM. `C[C@]12CCC(=O)C=C1CC[C@@H]1C2CC[C@]2(C)Nc3[nH]ncc3CC12` (some centres not stated) showed a TGI greater than 100 µM. With `COc1ccc2c(c1)c[n+](C)c1c3cc(OC)c(OC)cc3ccc21` the GI50 was 2850 nM and the TGI was 15.9 µM. Molecule `CSc1ccccc1C#C/C=C\C#Cc1ccccc1N` has a GI50 of 16300 nM and a TGI of 42.6 µM. In the case of `O=C1c2cc3c(cc2-c2c1c1cc(Cl)c(Cl)cc1c(=O)n2C[C@H](O)CO)OCO3`, the GI50 is reported as less than 10 nM and the TGI is reported as 0.187 µM. `COc1ccc(/C(=C\C=C(C#N)C#N)Sc2nc3ccccc3s2)cc1` gave a GI50 of 1700 nM and a TGI of 5.66 µM. Work on `CC(C)(C)[Si](C)(C)OC1C(=O)C[C@H]2CCCC[C@@H]12` (some centres not stated) yielded a TGI greater than 100 µM. `CCN(CC)CCSc1c2ccccc2nc2c(OC)ccc(OC)c12` was tested, and the TGI was greater than 20.6 µM. For `COc1cc(/C=C\c2cc(OC)c(OC)c(OC)c2)cc(N/C=C\C(=O)c2cc(OC)c(OC)c(OC)c2)c1OC`, the GI50 was 3760 nM and the TGI was greater than 100 µM. `CCOC(=O)c1ccc(N=Nc2cc(C(=O)OCC)ccc2O)cc1` showed a TGI greater than 100 µM. Molecule `[N-]=[N+]=N/C1=C/CCCCC(=O)C1` has a TGI greater than 100 µM. Work on `BrCc1cccc(C[P+](c2ccccc2)(c2ccccc2)c2ccccc2)c1` yielded a GI50 of 46200 nM and a TGI greater than 100 µM. For `Cc1ccc(NC(=O)CCc2nnc(N)o2)cc1`, the TGI was greater than 100 µM. `Cc1cc(N(CCCNc2ccnc3cc(Cl)ccc23)Cc2ccc3c(c2)OCO3)nc(N2CCOCC2)n1` gave a GI50 of 254 nM and a TGI of 0.907 µM. With `CCOC(=O)C1SC(=Nc2ccccc2)N=C1C` (configuration not stated) the TGI was greater than 100 µM. `O=C1CCC(=O)c2c1c(O)c1ccncc1c2O` was tested, and the TGI was 29.1 µM. With `CN(C)c1ccc(N=Nc2ccccn2)c(O)c1` the GI50 was 246 nM and the TGI was 15.9 µM. Work on `C=CCN1CCC23c4c5ccc(O)c4OC2C(=NN=C2CCC4(O)C6Cc7ccc(O)c8c7C4(CCN6CC=C)C2O8)CCC3(O)C1C5` (configuration not stated) yielded a TGI of 35.3 µM. Molecule `CN(C)CCNC(=O)c1cccc2c(Nc3ccc(S(=O)(=O)N=C(N)N)cc3)c3ccccc3nc12` has a TGI of 60 µM. Work on `COC(=O)C1=C(C(=O)OC)C2=S(SC3=C2CCCC3)S1` (configuration not stated) yielded a TGI of 15.2 µM. `O=C(NNc1ccccc1)C(=O)NNc1ccccc1` was tested, and the GI50 was 53900 nM and the TGI was greater than 100 µM. Molecule `CC1(C)CC(=O)CC(=Nc2ccc([N+](=O)[O-])cc2)C1` has a TGI greater than 100 µM. In the case of `Cc1nc2cc(Nc3nc(Nc4ccc(F)cc4)nc(-c4cccs4)n3)ccc2n1Cc1ccccc1`, the GI50 is reported as 3070 nM and the TGI is reported as 9.11 µM. With `Cn1cc(-c2csc(-c3c[nH]c4ccc(Br)cc34)n2)c2cnccc21` the GI50 was 1630 nM and the TGI was 3.4 µM. Work on `CCOC(=O)c1c(-c2ccc(OC)cc2)c(C#N)c2c(C#N)c(N)nn2c1N` yielded a GI50 of 3850 nM and a TGI of 23.3 µM.

What follows are molecules tested on M14 melanoma (assay: growth of human tumour cells (NCI), 48 h).
In the case of `Cn1c(Nc2ccc(C(F)(F)F)cc2)nc2cc(Oc3ccnc(-c4ncc(C(F)(F)F)[nH]4)c3)ccc21`, the GI50 is reported as 33.8 nM and the TGI is reported as 1.33 µM. Molecule `COc1ccc(-c2nsc3c2NC(=O)CC3c2cccc(OC)c2)cc1` (configuration not stated) has a GI50 of 613 nM and a TGI greater than 100 µM. `C[C@@]12CCC[C@@](C)(C(=O)O)C1CC[C@]13CC(=O)[C@](CO)(C1)[C@@H](O)CC32` (some centres not stated) showed a GI50 greater than 100000 nM and a TGI greater than 100 µM.
